Reference: patent publication US11247965B2 (VenatoRx Pharmaceuticals, Inc., priority 2017, dated 2022)

Key:
[1] = In vitro cytotoxicity, MTT cell viability assay in HepG2 cells; format: cell-based; conditions: human, Cytotoxicity CC50
Procedure, shortened: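 CC50 values reflect loss of HepG2 viability after a 7-day exposure at 37 °C, 5% CO2. After 3-4 h with MTT, solubilized formazan was quantified at 492 nm relative to vehicle wells.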

[2] = tested on: HBV replication in HepAD38 cells; assay: Anti-HBV activity in HepAD38 cells, extracellular HBV DNA by QPCR; format: cell-based, HBV (genotype D, serotype ayw); conditions: Hepatitis B virus, HePAD38, 168 h, read-out: Anti-HBV EC50, HepAD38 cells, extracellular HBV DNA by QPCR, 7 days of incubation
Procedure, shortened: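 HepAD38 cells (HepG2 with tet-repressible HBV genotype D genome) seeded overnight, tetracycline removed, then treated 7 days with compounds (half-log dilutions, 30 μM–10 nM; 1:200 from DMSO). Supernatant HBV DNA quantified by QPCR against standard curve; % inhibition vs vehicle, EC50 by 4-parameter fit.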

Structure (SMILES) | CC50 at 7 days [1] | EC50 [2]
Cc1cc(NC(=O)c2ccc(F)c(C(F)(F)C(=O)N3C4CC[C@@H]3C[C@@H](O)C4)c2)cc(F)c1F [Example 246, 3-(1,1-difluoro-2-((1R,3s,5S)-3-hydroxy-8-azabicyclo[3.2.1]octan-8-yl)-2-oxoethyl)-N-(3,4-difluoro-5-methylphenyl)-4-fluorobenzamide] | 5 to 30 µM | < 5 µM
O=C(Nc1cc(F)c(F)c(F)c1)c1ccc(Cl)c(C(F)(F)C(=O)N2C3CC[C@@H]2C[C@@H](O)C3)c1 [Example 247, 4-chloro-3-(1,1-difluoro-2-((1R,3s,5S)-3-hydroxy-8-azabicyclo[3.2.1]octan-8-yl)-2-oxoethyl)-N-(3,4,5-trifluorophenyl)benzamide] | 5 to 30 µM | 5 to 30 µM
Cc1cc(NC(=O)c2ccc(F)c(C(F)(F)C(=O)N3CCC(O)(CO)CC3)c2)cc(F)c1F [Example 248, 3-(1,1-difluoro-2-(4-hydroxy-4-(hydroxymethyl)piperidin-1-yl)-2-oxoethyl)-N-(3,4-difluoro-5-methylphenyl)-4-fluorobenzamide] | 5 to 30 µM | < 5 µM
Cc1cc(NC(=O)c2ccc(F)c(C(F)(F)C(=O)N3C4CC[C@@H]3C[C@H](O)C4)c2)cc(F)c1F [Example 249, 3-(1,1-difluoro-2-((1R,3r,5S)-3-hydroxy-8-azabicyclo[3.2.1]octan-8-yl)-2-oxoethyl)-N-(3,4-difluoro-5-methylphenyl)-4-fluorobenzamide] | 5 to 30 µM | < 5 µM
Cc1cc(NC(=O)c2ccc(F)c(C(F)(F)C(=O)N3CCC(O)C(F)(F)C3)c2)cc(F)c1F (stereo not shown) [Example 250, 3-(2-(3,3-difluoro-4-hydroxypiperidin-1-yl)-1,1-difluoro-2-oxoethyl)-N-(3,4-difluoro-5-methylphenyl)-4-fluorobenzamide] | 5 to 30 µM | < 5 µM
Cc1cc(NC(=O)c2ccc(F)c(C(F)(F)C(=O)N3CCC(O)C(F)(F)C3)c2)cc(F)n1 (stereo not shown) [Example 251, 3-(2-(3,3-difluoro-4-hydroxypiperidin-1-yl)-1,1-difluoro-2-oxoethyl)-4-fluoro-N-(2-fluoro-6-methylpyridin-4-yl)benzamide] | 5 to 30 µM | 5 to 30 µM
Cc1cc(NC(=O)c2ccc(F)c(C(F)(F)C(=O)NC34CCC(NC(=O)OC(C)(C)C)(CC3)C4)c2)ccc1F [Example 252, tert-butyl (4-(2,2-difluoro-2-(2-fluoro-5-((4-fluoro-3-methylphenyl)carbamoyl)phenyl)acetamido)bicyclo[2.2.1]heptan-1-yl)carbamate] | < 5 µM | 5 to 30 µM
Cc1cc(NC(=O)c2ccc(F)c(C(F)(F)C(=O)NC34CCC(N)(CC3)C4)c2)ccc1F [Example 253, 3-(2-((4-aminobicyclo[2.2.1]heptan-1-yl)amino)-1,1-difluoro-2-oxoethyl)-4-fluoro-N-(4-fluoro-3-methylphenyl)benzamide] | > 30 µM | < 5 µM
Cc1cc(NC(=O)c2ccc(F)c(C(F)(F)C(=O)NC34CCC(O)(CC3)C4)c2)ccc1F [Example 254, 3-(1,1-difluoro-2-((4-hydroxybicyclo[2.2.1]heptan-1-yl)amino)-2-oxoethyl)-4-fluoro-N-(4-fluoro-3-methylphenyl)benzamide] | > 30 µM | 5 to 30 µM
Cc1cc(NC(=O)c2ccc(F)c(C(F)(F)C(=O)N3CC[C@H](O)C[C@H]3C)c2)ccc1F [Example 255] | 5 to 30 µM | < 5 µM
Cc1cc(NC(=O)c2cccc(C(F)(F)C(=O)N3C4CC[C@@H]3C[C@@H](O)C4)c2F)ccc1F [Example 256, 3-(1,1-difluoro-2-((1R,3s,5S)-3-hydroxy-8-azabicyclo[3.2.1]octan-8-yl)-2-oxoethyl)-2-fluoro-N-(4-fluoro-3-methylphenyl)benzamide] | 5 to 30 µM | < 5 µM
Cc1cc(NC(=O)c2ccc(F)c(C(F)(F)C(=O)N3C4CC[C@@H]3C[C@@H](C(N)=O)C4)c2)ccc1F [Example 257, (1R,3s,5S)-8-(2,2-difluoro-2-(2-fluoro-5-((4-fluoro-3-methylphenyl)carbamoyl)phenyl)acetyl)-8-azabicyclo[3.2.1]octane-3-carboxamide] | 5 to 30 µM | < 5 µM
Cc1cc(NC(=O)c2ccc(F)c(C(F)(F)C(=O)N3C4CC[C@@H]3C[C@@H](C(=O)NCCO)C4)c2)ccc1F [Example 258, (1R,3s,5S)-8-(2,2-difluoro-2-(2-fluoro-5-((4-fluoro-3-methylphenyl)carbamoyl)phenyl)acetyl)-N-(2-hydroxyethyl)-8-azabicyclo[3.2.1]octane-3-carboxamide] | > 30 µM | < 5 µM
Cc1cc(NC(=O)c2ccc(F)c(C(F)(F)C(=O)N3C4CC[C@@H]3C[C@@H](C(=O)O)C4)c2)ccc1F [Example 259, (1R,3s,5S)-8-(2,2-difluoro-2-(2-fluoro-5-((4-fluoro-3-methylphenyl)carbamoyl)phenyl)acetyl)-8-azabicyclo[3.2.1]octane-3-carboxylic acid] | > 30 µM | < 5 µM
Cc1cc(NC(=O)c2ccc(F)c(C(F)(F)C(=O)N3C4CC[C@@H]3C[C@@H](C(=O)N3CCOCC3)C4)c2)ccc1F [Example 260, 3-(1,1-difluoro-2-((1R,3s,5S)-3-(morpholine-4-carbonyl)-8-azabicyclo[3.2.1]octan-8-yl)-2-oxoethyl)-4-fluoro-N-(4-fluoro-3-methylphenyl)benzamide] | > 30 µM | < 5 µM
Cc1cc(NC(=O)c2ccc(F)c(C(F)(F)C(=O)N3C4CC[C@@H]3C[C@@H](NS(C)(=O)=O)C4)c2)ccc1F [Example 261, 3-(1,1-difluoro-2-((1R,3s,5S)-3-(methylsulfonamido)-8-azabicyclo[3.2.1]octan-8-yl)-2-oxoethyl)-4-fluoro-N-(4-fluoro-3-methylphenyl)benzamide] | < 5 µM | < 5 µM
Cc1cc(NC(=O)c2ccc(F)c(C(F)(F)C(=O)N3C4CC[C@@H]3C[C@H](NS(C)(=O)=O)C4)c2)ccc1F [Example 262, 3-(1,1-difluoro-2-((1R,3r,5S)-3-(methylsulfonamido)-8-azabicyclo[3.2.1]octan-8-yl)-2-oxoethyl)-4-fluoro-N-(4-fluoro-3-methylphenyl)benzamide] | 5 to 30 µM | < 5 µM
CC(=O)N[C@@H]1CC2CC[C@H](C1)N2C(=O)C(F)(F)c1cc(C(=O)Nc2ccc(F)c(C)c2)ccc1F [Example 263, 3-(2-((1R,3r,5S)-3-acetamido-8-azabicyclo[3.2.1]octan-8-yl)-1,1-difluoro-2-oxoethyl)-4-fluoro-N-(4-fluoro-3-methylphenyl)benzamide] | 5 to 30 µM | < 5 µM
Cc1cc(NC(=O)c2ccc(F)c(C(F)(F)C(=O)N3CCN4C(=O)NCC4C3)c2)ccc1F (stereo not shown) [Example 264, 3-(1,1-difluoro-2-oxo-2-(3-oxohexahydroimidazo[1,5-a]pyrazin-7(1H)-yl)ethyl)-4-fluoro-N-(4-fluoro-3-methylphenyl)benzamide] | > 30 µM | < 5 µM
Cc1cc(NC(=O)c2ccc(F)c(C(F)(F)C(=O)N3[C@H]4CC[C@@H]3c3cn[nH]c3C4)c2)ccc1F [Example 265, 3-(1,1-difluoro-2-((4R,7S)-1,4,5,6,7,8-hexahydro-4,7-epiminocyclohepta[c]pyrazol-9-yl)-2-oxoethyl)-4-fluoro-N-(4-fluoro-3-methylphenyl)benzamide] | 5 to 30 µM | < 5 µM
